Our source for the logP and logD values is the SangsterLogP compilation.

Structures are written as SMILES.

For orientation: logD means the decadic logarithm of the distribution of all forms, ionised or not, between an organic phase and buffer at a given pH. A higher logD goes with higher lipophilicity.

Data set [1] in a line: method code SF, from DOI: 10.1021/bk-1995-0606.ch005.
Data set [2] can be described thus: method code SF, from DOI: 10.1080/09553008714551831, PMID: 3497891. To be noted: pH 7.4.
Data set [3] in a line: method code SF, from DOI: 10.1016/j.bmcl.2006.04.097, PMID: 16714112.
Data set [4] can be described thus: from Dutta, H.; Mehta, N.; SenGupta, M.; Pal, D.; Sengupta, C.; De, A. (1988). Dioxanide furoate: studies on its interaction with blood phospholipid in relation to partition coefficients of related drugs. ….
Data set [5] is described as follows: method code SF-AS, from DOI: 10.1021/jm00075a005, PMID: 8246220. To be noted: pH 7.4.
Data set [6] is described as follows: method code SF, from DOI: 10.1021/bk-1995-0606.ch004.
Data set [7] can be described thus: method code SF-HPLC, from DOI: 10.1016/0378-5173(87)90096-2. To be noted: pH 8.0.
Data set [8] in a line: method code SF-GLC, from DOI: 10.1016/0378-4274(86)90173-6, PMID: 3952768.
A short description of data set [9]: method code SF-AS, from DOI: 10.1021/j150653a049.
Data set [10] in a line: method code SF-AS, from DOI: 10.1016/s0021-9673(01)91572-9, PMID: 2376602. As to conditions: pH 7.0.
Data set [11] in a line: method code SF-AS, from DOI: 10.1016/0006-2952(80)90068-4, PMID: 6775639.
The nature of data set [12]: method code SF-AS, from DOI: 10.1016/0005-2728(86)90252-5, PMID: 3015209. As to conditions: pH 7.2.
Data set [13] is described as follows: method code SF-RC, from Audran, M.; Chanal, J.; Berge, G.; Marignan, R. (1983). Binding-structure correlation of bovine serum albumin in a series of cresotinamides. International Journal of Pharmaceutics, 15(3)273-284. To be noted: pH 1.0.
Data set [14] can be described thus: method code SF, from DOI: 10.1002/1522-2675(20001004)83:10<2836::aid-hlca2836>3.0.co;2-g.
Assay in data set [15]: not given
The source holds these as a separate data set.

Data set [16] in a line: method code SF-AS, from Korenman, Y.; Danilov, N. (1990). Extraction of alkyl salicylates from aqueous media. Journal of Applied Chemistry of the USSR, 63(1)125-129.
Data set [17] is described as follows: method code SF, from DOI: 10.1016/s0378-5173(98)00231-2.
Data set [18] is described as follows: method code SF-HPLC, from DOI: 10.1023/a:1015862319927, PMID: 2062808. As to conditions: pH 7.4.
Data set [19] is described as follows: method code SF-C, from DOI: 10.1021/ja00901a033.
Data set [20] is described as follows: method code SF-AS, from DOI: 10.1016/j.bioorg.2006.09.003, PMID: 17078995. To be noted: pH 7.4.
Data set [21] can be described thus: method code SF-C, from DOI: 10.1038/194178b0.
Assay in data set [22]: not given
The source holds these as a separate data set.

Data set [23] can be described thus: method code SF-HPLC, from PMID: 3799213. To be noted: pH 4.0.
The nature of data set [24]: method code SF-AS, from DOI: 10.1002/jhet.5570150704.
The nature of data set [25]: method code SF, from DOI: 10.1016/0048-3575(88)90017-x.
The nature of data set [26]: method code SF-AS, from DOI: 10.1016/0378-5173(90)90042-3.

In [1], `COC(=O)Nc1ccccc1` displayed a logP of 1.76. The same measure, in the same setting: for `COP(=S)(OC)Oc1ccc([N+](=O)[O-])cc1` the value was 2.86. Take `COC(=O)C(=Cc1cnc(S(C)=O)n1C)C(=O)OC` (stereo unspecified): in data set [2], the logD was -0.43. `Ic1ccccc1C1=NCCO1` had a logP in [3] of 2.3.

For `CN(C(=O)C(Cl)Cl)c1ccc(O)cc1`, the logP in [4] came out at 1.78. As to `O=C1CC2(CCCC2)C(=O)N1OCc1ccccc1`, the logD in data set [5] worked out at 2.3.

The molecule `COP(=O)(OC)Oc1ccc(C#N)cc1` registered a logP in data set [6] of 0.84. Take `CC(OCC=CCO)N1C=CNC1[N+](=O)[O-]` (stereo unspecified): the logD in data set [2] is -0.28. On to `CCCCCNCc1ccc(C)cc1`, for which the logP is 4.26. In data set [7], `NC(=O)CCCCc1ccccn1` returned a logD of 0.4.

`CC(=O)CCC(C)C`: the logP in [8] was 1.88.

Take `OCc1cccc(O)c1`: the logP in data set [9] stood at 0.5. Molecule `CNCc1ccc(C)cc1` showed a logP of 1.96. `Nc1ncnc2c1ncn2C1C=C(CO)C(O)C1O` (stereo unspecified): the logD in data set [10] was -1.3. In the case of `COC(=O)c1ccccc1CS(=O)(=O)Nc1nc(OC)cc(OC)n1`, the logD in data set [1] (pH 5.0) stood at 2.4. `CC1=CC(=O)C(C)=C(C)C1=O`: the logP in [11] was 1.47. The molecule `Cc1ccc(C)c(NN=C(C#N)C#N)c1` registered a logD in [12] of 2.6. For the molecule `NC(=O)CCCc1ccncc1`, in [7], the logD was determined as 0.06. Molecule `CCCCNC(=O)c1cc(Br)cc(C)c1O` had a logD in [13] of 4.21. In data set [10], `Nc1ccn([C@@H]2C=C(CO)[C@@H](O)[C@H]2O)c(=O)n1` showed a logD of -2.3. For `Cc1ccc(O)c(CO)c1`, the logP in data set [9] stood at 0.97. For the molecule `CNCCc1ccccc1`, the logD in data set [14] (pH 12.5) came out at 1.68. In turn, `CCCNCc1ccc(C)cc1` had a logP of 2.96. Consider `c1ccc2c(c1)CCCN2`, for which the logP in [15] turned out to be 2.29. The molecule `CC(=O)Oc1ccc(N(C)C(=O)C(Cl)Cl)cc1` showed a logP in data set [4] of 1.56.

For `CCCOC(=O)c1ccccc1O`, the logP in data set [16] is 3.8.

Molecule `NC(=O)CCCc1cccnc1` came in with a logD in data set [7] of 0.07. Turning to `CC(=O)Oc1ccc(NC(=O)C(Cl)Cl)cc1`, the logP in data set [4] came out at 1.9.

For the molecule `O=C1C(c2[nH]c3ccc(S(=O)(=O)O)cc3c2O)=Nc2ccc(S(=O)(=O)O)cc21`, the logP in data set [11] is -2. Regarding `OCCCCCCc1ccccc1`, the logP in data set [17] amounted to 3.29. In turn, `CCC(=O)OCC1OC(n2cc(I)c(=O)[nH]c2=O)CC1O` (stereo unspecified) returned a logD in [18] of 0.68. Regarding `Cc1ccc(OCC(=O)O)cc1`, the logP in data set [19] amounted to 1.95.

In turn, `OCCc1ccc(O)c(O)c1` displayed a logD in data set [20] of 0.09. In the case of `CCCCCCCCCC(C)=O`, the logP in data set [8] amounted to 4.09. Consider `O=C(O)COc1cccc(Br)c1`, for which the logP in data set [21] is 2.4. For the molecule `Cc1cccc(C)c1C1=NCCO1`, the logP in [3] came to 2.21. `Cc1ccc(CN)cc1` displayed a logD in data set [14] (pH 12.5) of 1.58. `O=C(O)CONC(=O)c1c(Cl)cccc1Cl`: the logP in [22] is 0.83. `CON1C(=O)CC2(CCCC2)C1=O` came in with a logD in data set [5] of 1.15.

`N#CC(C#N)=NNc1c(Cl)cccc1Cl` yielded a logD in [12] of 2.01.

Turning to `Cc1ncn(-c2ccc(Cl)cc2)c(=O)c1C(=O)O`, in [22], the logP turned out to be 2.26.

In the case of `COP(=O)(OC)Oc1c(Cl)cc(C)cc1Cl`, the logP in [6] came to 2.66. In the case of `CNc1ccc(C)cc1`, in data set [15], the logP was 2.15.

Turning to `O=C(OCn1c(=O)[nH]cc(F)c1=O)Oc1ccccc1`, the logD in [23] was 1.11. `CCNc1ccccc1` yielded a logP in data set [15] of 2.16. Molecule `O=C(O)C(=O)Nc1ccc(Cl)cc1` came in with a logP in data set [22] of 2.08. In the case of `Cc1noc(-c2ccccn2)n1`, the logP in [24] amounted to 0.89.

In turn, `Nc1ccccc1-c1ccccc1` gave a logD in data set [14] (pH 5.5) of 2.64. The molecule `CC1=C(C)C(=O)C(C)=C(C)C1=O` returned a logP in data set [11] of 2.12. In data set [25], `CC(=O)OCN1C(=O)C(C)=C(C)C1=O` registered a logP of 0.65.

`O=c1[nH]c(=O)n([C@H]2C[C@H](O)[C@@H](CO)O2)cc1I` registered a logD in data set [18] of -0.95. In data set [3], `FC(F)(F)c1ccccc1C1=NCCO1` had a logP of 2.15.

Consider `CC(=O)OCN1C(=O)c2ccccc2C1=O`, for which the logP in data set [25] is 1.15. In [9], `OCc1cc(Br)ccc1O` gave a logP of 1.72. On to `O=C(OC[C@H]1O[C@@H](n2cc(I)c(=O)[nH]c2=O)C[C@@H]1O)c1ccccc1`, for which, in data set [18], the logD was 1.4. The molecule `CCOC(=O)OCn1cc(F)c(=O)[nH]c1=O` came in with a logD in data set [23] of -0.04.

As for `CCCCOC(=O)c1ccccc1O`, the logP in [16] is 4.63.

In [26], `CCCCOC(=O)c1cc(=O)[nH]c(=O)[nH]1` returned a logP of 1.33.

On to `OCCCCCc1ccccc1`, for which the logP in [17] was 2.89. Consider `CC(=O)OCN1Cc2ccccc2C1=O`, for which the logP in data set [25] is 0.99. For `OCCCc1ccccc1`, the logP in [17] came out at 1.83. Regarding `CCOC(=O)OCn1c(=O)[nH]cc(F)c1=O`, in data set [23], the logD stood at 0.15.

Molecule `COC(=O)c1ccccc1O` had a logP in data set [16] of 2.08. Molecule `CCCOC(=O)c1cc(=O)[nH]c(=O)[nH]1` registered a logP in data set [26] of 1.1. In data set [10], `Nc1nc(=O)n([C@H]2CC[C@@H](CO)O2)cc1F` had a logD of -1.05. For `COC(=O)C(=Cc1cnc(S(C)(=O)=O)n1C)C(=O)OC`, the logD in data set [2] was 0.49. `CNC(=O)c1cc(Br)cc(C)c1O` yielded a logD in data set [13] of 3.51. `COc1cc(CCOC(C)=O)ccc1O` came in with a logD in data set [20] of 1.5. Molecule `Cc1cc(Br)cc(C(=O)NC2CC2)c1O` returned a logD in data set [13] of 3.8. Molecule `CCOP(=O)(Oc1ccc(C#N)cc1)c1ccccc1` (stereo unspecified) came in with a logP in [6] of 2.44. As to `CC(C)OC(=O)c1cc(=O)[nH]c(=O)[nH]1`, the logP in data set [26] is 0.81. In data set [20], `CCC(=O)OCCc1ccc(O)c(OC)c1` returned a logD of 2.33. The molecule `Cc1nnc(-c2ccccn2)o1` displayed a logP in [24] of 0.46. The molecule `O=C(O)COc1ccc(Cl)cc1` yielded a logP in data set [21] of 2.23. `CCCC(C)CCC(C)=O` (stereo unspecified) returned a logP in data set [8] of 2.92. In [12], `Cc1cc([N+](=O)[O-])ccc1NN=C(C#N)C#N` registered a logD of 1.85. In the case of `CCc1cccc(OCC(=O)O)c1`, the logP in [21] came to 2.3. With `O=C(O)COc1ccc(I)cc1`, the logP in [19] was found to be 2.69. Molecule `O=C1CC2(CCCC2)C(=O)N1OCc1ccc(Cl)cc1` showed a logD in [5] of 2.53.

With `N#Cc1ccc(OCC(=O)O)cc1`, in [19], the logP was 1.11. As to `Cc1nonc1-c1ccccn1`, the logP in data set [24] was determined as 2.09.
